The source made the active and inactive calls. The calls are words filed in the database; no cut-off is given here.
Legend:
[1] = system: Mus musculus; assay: Toxicity in Trypanosoma cruzi Tulahuen infected in Swiss mouse assessed as changes in liver SGOT enzyme levels at 150 mg/kg/day, po for 6 days per week until completion of 60 compound doses administered 5 days post infection […]; type: organism-based; parameters: route oral; conditions: in vivo
[2] = system: Trypanosoma cruzi; assay: Antimicrobial activity against Trypanosoma cruzi Tulahuen infected in Swiss mouse assessed as parasite DNA level at 150 mg/kg/day, po for 6 days per week until completion of 60 compound doses administered 5 days post infection measured 30 days post dose by PCR amplification method; type: functional
[3] = system: Trypanosoma cruzi; assay: (§1) Antimicrobial activity against Trypanosoma cruzi Tulahuen infected in Swiss mouse assessed as reduction in parasite specific antibodies at 150 mg/kg/day, po for 6 days per week until completion of 60 compound doses administered 5 days post infection measured 45 days post dose by ELISA based serological study; type: functional, organism-based
[4] = system: Mus musculus; assay: Toxicity in Swiss mouse infected with Trypanosoma cruzi Tulahuen assessed as occurrence of erected hair at 150 mg/kg/day, po for 6 days per week until completion of 60 compound doses administered 5 days post infection measured 2 weeks post dose; type: organism-based; parameters: route oral; conditions: in vivo, 336 h
[5] = system: Trypanosoma cruzi; assay: (§2) Antimicrobial activity against Trypanosoma cruzi Tulahuen infected in Swiss mouse assessed as reduction in reduction in parasite induced histopathological changes in liver at 150 mg/kg/day, po for 6 days per week until completion of 60 compound doses administered 5 days post infection by hematoxylin-eosin staining; type: functional, organism-based
[6] = system: Trypanosoma cruzi; assay: Antimicrobial activity against Trypanosoma cruzi Tulahuen infected in Swiss mouse assessed as mouse mortality rate at 150 mg/kg/day, po for 6 days per week until completion of 60 compound doses administered 5 days post infection; type: functional
[7] = system: Trypanosoma cruzi; assay: Antimicrobial activity against Trypanosoma cruzi Tulahuen infected in Swiss mouse assessed as reduction in blood parasite load at 150 mg/kg/day, po for 6 days per week until completion of 60 compound doses administered 5 days post infection; type: functional, organism-based
[8] = system: Mus musculus; assay: Toxicity in Swiss mouse infected with Trypanosoma cruzi Tulahuen assessed as occurrence of inactivity at 150 mg/kg/day, po for 6 days per week until completion of 60 compound doses administered 5 days post infection measured 2 weeks post dose; type: organism-based; parameters: route oral; conditions: in vivo, 336 h
[9] = system: Trypanosoma cruzi; assay: Antimicrobial activity against Trypanosoma cruzi Tulahuen infected in Swiss mouse assessed as parasite DNA level at 150 mg/kg/day, po for 6 days per week until completion of 60 compound doses administered 5 days post infection measured 180 days post dose by PCR amplification method; type: functional
[10] = system: Trypanosoma cruzi; assay: as §2, with “skeletal muscle” for “liver”; type: functional, organism-based
[11] = system: Mus musculus; assay: Toxicity in Swiss mouse infected with Trypanosoma cruzi Tulahuen assessed as occurrence of dehydration at 150 mg/kg/day, po for 6 days per week until completion of 60 compound doses administered 5 days post infection measured 2 weeks post dose; type: organism-based; parameters: route oral; conditions: in vivo, 336 h
[12] = system: Mus musculus; assay: Toxicity in Trypanosoma cruzi Tulahuen infected in Swiss mouse assessed as changes in liver SGOT enzyme levels at 60 mg/kg/day, po for 6 days per week until completion of 60 compound doses administered 5 days post infection […]; type: organism-based; parameters: route oral; conditions: in vivo
[13] = system: Trypanosoma cruzi; assay: as §1, with “60” for “150”, “180” for “45”; type: functional; parameters: scale not given: the % may be the effect or the level left
[14] = system: Trypanosoma cruzi; assay: Antimicrobial activity against Trypanosoma cruzi Tulahuen infected in Swiss mouse assessed as parasite DNA level at 60 mg/kg/day, po for 6 days per week until completion of 60 compound doses administered 5 days post infection measured 180 days post dose by PCR amplification method; type: functional
[15] = system: Trypanosoma cruzi; assay: as §1, with “60” for “150”; type: functional, organism-based
[16] = system: Trypanosoma cruzi; assay: as §2, with “60” for “150”; type: functional, organism-based
[17] = system: Trypanosoma cruzi; assay: Antimicrobial activity against Trypanosoma cruzi Tulahuen infected in Swiss mouse assessed as parasite DNA level at 60 mg/kg/day, po for 6 days per week until completion of 60 compound doses administered 5 days post infection measured 30 days post dose by PCR amplification method; type: functional
[18] = system: Trypanosoma cruzi; assay: as §2, with “skeletal muscle” for “liver”, “60” for “150”; type: functional, organism-based
[19] = system: Trypanosoma cruzi; assay: Antimicrobial activity against Trypanosoma cruzi Tulahuen infected in Swiss mouse assessed as mouse mortality at 60 mg/kg/day, po for 6 days per week until completion of 60 compound doses administered 5 days post infection; type: functional
[20] = system: Trypanosoma cruzi; assay: Antimicrobial activity against Trypanosoma cruzi Tulahuen infected in Swiss mouse assessed as reduction in blood parasite load at 60 mg/kg/day, po for 6 days per week until completion of 60 compound doses administered 5 days post infection; type: functional, organism-based
[21] = system: Trypanosoma cruzi; assay: as §1, with “180” for “45”; type: functional; parameters: scale not given: the % may be the effect or the level left

Structure (SMILES) | Activity [1] | Activity [2] | Activity [3] | Activity [5] | Activity [6] | Activity [7] | Activity [9] | Activity [10] | also measured
NC(=O)N/N=C/c1ccc([N+](=O)[O-])o1 [NITROFURAZONE] | Non-toxic | 66.6% | Active | Active | 75% | Active | 0% | Active | Activity [4]: Toxic; Activity [8]: Toxic; Activity [11]: Toxic
O=C(Cn1ccnc1[N+](=O)[O-])NCc1ccccc1 [BENZNIDAZOLE] |  |  |  |  |  |  |  |  | Activity [12]: Non-toxic; Activity [13]: 50%; Activity [14]: 0%; Activity [15]: Active; Activity [16]: Active; Activity [17]: 0%; Activity [18]: Active; Activity [19]: 33.3%; Activity [20]: Active
O=C(NCO)N/N=C/c1ccc([N+](=O)[O-])o1 [HYDROXYMETHYLNITROFURAZONE] | Non-toxic | 10% | Active | Active | 16% | Active | 0% | Active | Activity [21]: 30%

Reference: ChEMBL document CHEMBL1671708, “Hydroxymethylnitrofurazone is active in a murine model of Chagas' disease” (Antimicrob Agents Chemother, 2010)
